{
  "source": "patent US20080019909A1",
  "about": "“Modulation of Programmed Necrosis” (priority 2003, published 2008)",
  "key": {"[1]": {"system": "TNFR-2+ RIP -/- Jurkat cells (R1.1)", "experiment": "TNF cytotoxic assay (cell loss by PI exclusion on FACS), TNFR-2+ RIP -/- cells", "assay_type": "cell-based", "settings": "for TNF-induced death (cell loss): TNFR-2+ RIP -/- cells (R1.1), 10 ng/ml rhTNFα, 16 hours", "source_text": "The results are representative of three experiments."}, "RIP [2]": {"system": "RIP", "experiment": "Western blot of RIP protein expression in cells treated with GA", "assay_type": "cell-based"}, "[3]": {"system": "TNFR-2-expressing wild-type (4E3) Jurkat cells", "procedure": "Cells were harvested and analyzed by PI exclusion on FACS 16 hours post-stimulation and cell loss was calculated as described in Example 1 (infra)."}, "FADD -/- I42 cells": {"system": "FADD -/- I42 cells", "experiment": "TNF cytotoxic assay (cell loss by PI exclusion on FACS), FADD -/- I42 cells", "assay_type": "cell-based", "settings": "FADD -/- I42 cells; TNF 16 hours; zVAD-fmk or GA", "description": "Cells were stimulated with, TNF or anti-Fas antibody (CH11) for 12 hours and cell loss was analyzed on the GFP+ cells by PI exclusion on FACS.\nFIG. 8F is a bar graph depicting the results of experiments in which FADD -/- I42 cells and caspase-8 -/- J3.2 cells (both are TNFR-2+) were stimulated with TNF in the presence or absence of zVAD-fmk for 16 hours."}, "caspase-8 -/- J3.2 cells": {"system": "caspase-8 -/- J3.2 cells", "experiment": "TNF cytotoxic assay (cell loss by PI exclusion on FACS), caspase-8 -/- J3.2 cells", "settings": "caspase-8 -/- J3.2 cells; rhTNF 15-16 hours; zVAD-fmk or 0.5 mM GA pretreatment"}, "RIP [4]": {"system": "RIP", "experiment": "Western blot of RIP cleavage in TNF or anti-Fas stimulated wild-type 4E3 cells", "assay_type": "cell-based", "settings": "six hours, C-terminal specific RIP antibody", "description": "FIG. 4A is a Western blot showing the results of experiments in which wild-type 4E3 cells (WT) and J3.2 cells (Casp-8 -/-) cells Were treated with various combinations of rhTNFα, Apo-1 (anti-Fas), and zVAD-fmk for six hours before whole cell lysates were harvested."}},
  "note": "“Also recorded” adds a separate entry of the source.",
  "data": [
    {"compound": "COC1=C2C[C@@H](C)C[C@H](OC)[C@H](O)[C@@H](C)/C=C(\\C)[C@H](OC(N)=O)[C@@H](OC)/C=C\\C=C(/C)C(=O)NC(=CC1=O)C2=O", "note": "[geldanamycin]", "values": [
      {"measurement": "TNF-induced death (cell loss)", "setting": "[1]; or 0.5 mM GA", "result": "no effect"},
      {"measurement": "reduction in RIP protein level", "setting": "RIP [2]", "result": "> 90", "unit": "%"},
      {"measurement": "cell viability, compound alone", "setting": "[3]", "result": "no effect"}
    ]},
    {"compound": "z-Val-Ala-Asp-fluoromethyl ketone [zVAD-fmk]", "values": [
      {"measurement": "TNF-induced death (cell loss)", "setting": "[1]; 50 mM zVAD-fmk or 0.5 mM GA", "result": "completely inhibited"},
      {"measurement": "TNF killing restored by K45A or RIPc, in the presence of zVAD-fmk", "setting": "[1]; TNFR-2+ RIP -/- cells reconstituted with kinase inactive (K45A) RIP or RIPc", "result": "potently inhibited"},
      {"measurement": "TNF-induced programmed necrosis (cell loss)", "setting": "FADD -/- I42 cells", "result": "failed to provide any protection; also recorded: not blocked"},
      {"measurement": "TNF-induced programmed necrosis (cell loss)", "setting": "caspase-8 -/- J3.2 cells", "result": "failed to provide any protection; also recorded: not blocked"},
      {"measurement": "cell viability, compound alone", "setting": "[3]", "result": "no effect"},
      {"measurement": "TNF-induced death (cell loss), zVAD-fmk plus GA together", "setting": "[3]; wild-type 4E3 cells, 10 ng/ml rhTNFα with zVAD-fmk plus GA, 16 hours", "result": "synergized to completely suppress"},
      {"measurement": "TNF-induced death (cell loss), single agent", "setting": "[3]; wild-type 4E3 cells, 10 ng/ml rhTNFα, 16 hours, or 0.5 mM GA", "result": "partial protective effect"},
      {"measurement": "RIP cleavage", "setting": "RIP [4]", "result": "potently inhibited"}
    ]}
  ]
}
